Assay results taken from ChEMBL document CHEMBL5465560, “Selectivity Literature for EUbOPEN Chemogenomic Library” (2024).
Blank lines part the entries; values can stand above or below the compound they belong to.

What was measured:
[1] = target: Ribosomal protein S6 kinase alpha-2 (Homo sapiens) (UniProt Q15349); assay: Selectivity interaction (KinomeScan (DiscoverX)) EUB0001049a RPS6KA2; details: at 1 µM
[2] = target: Tyrosine-protein kinase Srms (Homo sapiens) (UniProt Q9H3Y6); assay: Selectivity interaction (Kinase panel (Invitrogen)) EUB0000639a SRMS; details: at 200 nM
Chain of Tyrosine-protein kinase Srms (Homo sapiens) (Q9H3Y6 whole entry): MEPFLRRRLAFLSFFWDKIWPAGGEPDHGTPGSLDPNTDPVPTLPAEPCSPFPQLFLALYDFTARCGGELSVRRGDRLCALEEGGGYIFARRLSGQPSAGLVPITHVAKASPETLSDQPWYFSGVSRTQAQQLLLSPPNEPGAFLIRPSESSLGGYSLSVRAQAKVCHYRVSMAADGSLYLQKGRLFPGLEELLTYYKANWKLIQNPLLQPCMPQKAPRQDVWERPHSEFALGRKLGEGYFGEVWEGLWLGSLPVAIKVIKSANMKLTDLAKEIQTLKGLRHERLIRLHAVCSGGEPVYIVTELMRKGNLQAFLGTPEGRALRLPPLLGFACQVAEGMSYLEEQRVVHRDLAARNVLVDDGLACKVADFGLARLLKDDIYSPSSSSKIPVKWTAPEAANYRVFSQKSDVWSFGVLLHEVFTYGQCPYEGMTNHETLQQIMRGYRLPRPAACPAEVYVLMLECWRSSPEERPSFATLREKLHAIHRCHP

[3] = target: Epidermal growth factor receptor (Homo sapiens, UniProt P00533)
Chain of Epidermal growth factor receptor (P00533 whole entry): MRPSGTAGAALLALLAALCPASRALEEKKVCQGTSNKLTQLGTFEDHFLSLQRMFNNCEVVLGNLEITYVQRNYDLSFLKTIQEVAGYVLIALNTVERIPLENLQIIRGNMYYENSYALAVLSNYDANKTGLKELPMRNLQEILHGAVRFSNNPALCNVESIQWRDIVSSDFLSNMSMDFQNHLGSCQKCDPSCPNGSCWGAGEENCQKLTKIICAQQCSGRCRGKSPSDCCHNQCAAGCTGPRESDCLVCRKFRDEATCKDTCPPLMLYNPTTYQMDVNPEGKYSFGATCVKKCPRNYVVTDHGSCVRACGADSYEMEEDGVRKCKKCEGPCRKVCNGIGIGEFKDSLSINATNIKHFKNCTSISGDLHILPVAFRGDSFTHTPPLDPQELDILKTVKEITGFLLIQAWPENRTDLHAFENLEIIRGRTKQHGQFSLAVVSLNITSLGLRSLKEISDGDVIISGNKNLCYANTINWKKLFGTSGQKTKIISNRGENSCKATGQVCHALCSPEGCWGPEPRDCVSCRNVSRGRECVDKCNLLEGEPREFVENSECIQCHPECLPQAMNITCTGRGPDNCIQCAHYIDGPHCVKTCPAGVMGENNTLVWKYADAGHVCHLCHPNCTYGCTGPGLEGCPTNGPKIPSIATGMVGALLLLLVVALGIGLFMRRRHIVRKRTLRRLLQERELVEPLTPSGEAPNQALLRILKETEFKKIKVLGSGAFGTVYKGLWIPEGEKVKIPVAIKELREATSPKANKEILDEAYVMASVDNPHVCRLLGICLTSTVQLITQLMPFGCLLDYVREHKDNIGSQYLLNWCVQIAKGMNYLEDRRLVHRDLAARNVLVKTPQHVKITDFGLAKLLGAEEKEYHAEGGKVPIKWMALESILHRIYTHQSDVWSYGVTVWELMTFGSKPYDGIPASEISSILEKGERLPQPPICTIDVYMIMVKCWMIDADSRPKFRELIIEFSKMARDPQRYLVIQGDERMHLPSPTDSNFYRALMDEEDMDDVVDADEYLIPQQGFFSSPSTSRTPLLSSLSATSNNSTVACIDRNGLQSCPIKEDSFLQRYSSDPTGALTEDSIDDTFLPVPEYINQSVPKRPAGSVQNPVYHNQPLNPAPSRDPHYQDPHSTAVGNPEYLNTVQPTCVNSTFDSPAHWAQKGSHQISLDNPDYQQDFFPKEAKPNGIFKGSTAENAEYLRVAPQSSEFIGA

[4] = target: T1, Serine/threonine-protein kinase Nek9 (Homo sapiens) (UniProt Q8TD19); assay: Selectivity interaction (Kinase panel (Z-LYTE Assay)) EUB0001632a NEK9; details: at 10 µM
T1 sequence (whole entry): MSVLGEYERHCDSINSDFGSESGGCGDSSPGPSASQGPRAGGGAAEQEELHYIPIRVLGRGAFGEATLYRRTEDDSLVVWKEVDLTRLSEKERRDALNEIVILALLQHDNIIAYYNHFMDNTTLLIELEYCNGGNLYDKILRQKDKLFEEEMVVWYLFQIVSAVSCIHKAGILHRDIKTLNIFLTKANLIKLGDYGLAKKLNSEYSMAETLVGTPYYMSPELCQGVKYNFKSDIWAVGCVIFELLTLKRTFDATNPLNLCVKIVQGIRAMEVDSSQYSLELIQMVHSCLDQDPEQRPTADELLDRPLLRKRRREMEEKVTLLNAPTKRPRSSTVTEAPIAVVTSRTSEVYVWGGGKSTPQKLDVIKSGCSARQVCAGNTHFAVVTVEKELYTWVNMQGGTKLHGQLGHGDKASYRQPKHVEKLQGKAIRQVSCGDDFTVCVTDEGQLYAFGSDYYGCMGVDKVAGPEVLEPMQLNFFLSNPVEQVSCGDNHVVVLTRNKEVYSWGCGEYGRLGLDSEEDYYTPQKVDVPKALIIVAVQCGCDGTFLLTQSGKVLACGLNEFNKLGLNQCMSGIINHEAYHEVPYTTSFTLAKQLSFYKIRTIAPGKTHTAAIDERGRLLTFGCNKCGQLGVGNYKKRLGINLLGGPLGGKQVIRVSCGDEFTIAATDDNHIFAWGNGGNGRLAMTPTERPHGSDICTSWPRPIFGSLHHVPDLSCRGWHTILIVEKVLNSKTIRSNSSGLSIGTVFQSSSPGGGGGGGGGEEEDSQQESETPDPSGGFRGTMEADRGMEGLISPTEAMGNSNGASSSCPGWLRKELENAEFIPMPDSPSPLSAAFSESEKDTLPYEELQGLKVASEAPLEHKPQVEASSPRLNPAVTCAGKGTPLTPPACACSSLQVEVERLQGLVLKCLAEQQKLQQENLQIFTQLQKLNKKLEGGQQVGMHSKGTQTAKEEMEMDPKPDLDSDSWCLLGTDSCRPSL

[5] = target: Tyrosine-protein kinase Fgr (Homo sapiens) (UniProt P09769); details: at 10 µM
Chain of Tyrosine-protein kinase Fgr (Homo sapiens) (P09769 2-529 limits assumed): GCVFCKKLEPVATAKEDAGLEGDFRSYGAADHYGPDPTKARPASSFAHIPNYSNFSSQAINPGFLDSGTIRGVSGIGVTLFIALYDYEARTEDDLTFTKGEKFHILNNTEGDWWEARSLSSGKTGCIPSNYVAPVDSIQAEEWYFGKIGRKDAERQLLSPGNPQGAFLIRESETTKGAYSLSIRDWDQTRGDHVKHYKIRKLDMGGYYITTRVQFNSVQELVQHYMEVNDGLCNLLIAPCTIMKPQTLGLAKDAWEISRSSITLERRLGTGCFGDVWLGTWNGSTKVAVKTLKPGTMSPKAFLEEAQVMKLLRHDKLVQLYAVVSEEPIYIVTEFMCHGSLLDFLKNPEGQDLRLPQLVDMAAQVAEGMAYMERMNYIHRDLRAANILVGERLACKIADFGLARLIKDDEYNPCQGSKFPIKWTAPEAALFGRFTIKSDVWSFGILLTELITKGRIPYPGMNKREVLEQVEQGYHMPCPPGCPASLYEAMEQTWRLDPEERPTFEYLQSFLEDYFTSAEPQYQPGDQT

[6] = target: Cannabinoid receptor 2 (Homo sapiens) (UniProt P34972); assay: Selectivity interaction (Panel of non-epigenetic targets (kinases, GPCRs, ion channels, and transporters, Eurofins) ) EUB0000271b CNR2; details: at 1 µM
Chain of Cannabinoid receptor 2 (Homo sapiens) (P34972 whole entry): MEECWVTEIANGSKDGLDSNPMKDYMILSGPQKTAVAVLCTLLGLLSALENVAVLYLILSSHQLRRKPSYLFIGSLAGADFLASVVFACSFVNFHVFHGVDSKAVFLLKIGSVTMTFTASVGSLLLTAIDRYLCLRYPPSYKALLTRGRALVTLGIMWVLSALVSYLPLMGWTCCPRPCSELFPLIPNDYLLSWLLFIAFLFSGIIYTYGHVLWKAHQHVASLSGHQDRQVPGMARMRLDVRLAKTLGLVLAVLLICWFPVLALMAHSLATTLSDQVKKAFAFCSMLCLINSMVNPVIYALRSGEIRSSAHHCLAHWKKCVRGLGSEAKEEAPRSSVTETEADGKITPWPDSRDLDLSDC

[7] = target: Vascular endothelial growth factor receptor 3 (Homo sapiens, UniProt P35916); assay: Selectivity interaction (KinomeScan (DiscoverX)) EUB0000229b FLT4; details: at 10 µM
[8] = target: Dual specificity mitogen-activated protein kinase kinase 1 (Homo sapiens, UniProt Q02750); assay: Selectivity interaction (KinomeScan (DiscoverX)) EUB0000655a MAP2K1; details: at 10 µM
Chain of Dual specificity mitogen-activated protein kinase kinase 1 (Q02750 whole entry): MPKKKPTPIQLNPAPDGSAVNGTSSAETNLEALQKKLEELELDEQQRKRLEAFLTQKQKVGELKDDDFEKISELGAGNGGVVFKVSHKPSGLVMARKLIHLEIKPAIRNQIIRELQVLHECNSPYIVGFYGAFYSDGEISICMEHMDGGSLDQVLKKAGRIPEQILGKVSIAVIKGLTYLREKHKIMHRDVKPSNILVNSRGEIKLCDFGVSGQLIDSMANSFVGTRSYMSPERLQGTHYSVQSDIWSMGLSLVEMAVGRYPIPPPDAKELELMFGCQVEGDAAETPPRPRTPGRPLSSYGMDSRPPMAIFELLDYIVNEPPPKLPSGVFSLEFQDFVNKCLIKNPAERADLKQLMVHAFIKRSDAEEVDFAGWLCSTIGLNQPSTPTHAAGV

[9] = target: Ribosomal protein S6 kinase beta-1 (Homo sapiens, UniProt P23443); assay: Selectivity interaction (KinomeScan (DiscoverX)) EUB0000655a RPS6KB1; details: at 10 µM
Chain of Ribosomal protein S6 kinase beta-1 (P23443 whole entry, looked up): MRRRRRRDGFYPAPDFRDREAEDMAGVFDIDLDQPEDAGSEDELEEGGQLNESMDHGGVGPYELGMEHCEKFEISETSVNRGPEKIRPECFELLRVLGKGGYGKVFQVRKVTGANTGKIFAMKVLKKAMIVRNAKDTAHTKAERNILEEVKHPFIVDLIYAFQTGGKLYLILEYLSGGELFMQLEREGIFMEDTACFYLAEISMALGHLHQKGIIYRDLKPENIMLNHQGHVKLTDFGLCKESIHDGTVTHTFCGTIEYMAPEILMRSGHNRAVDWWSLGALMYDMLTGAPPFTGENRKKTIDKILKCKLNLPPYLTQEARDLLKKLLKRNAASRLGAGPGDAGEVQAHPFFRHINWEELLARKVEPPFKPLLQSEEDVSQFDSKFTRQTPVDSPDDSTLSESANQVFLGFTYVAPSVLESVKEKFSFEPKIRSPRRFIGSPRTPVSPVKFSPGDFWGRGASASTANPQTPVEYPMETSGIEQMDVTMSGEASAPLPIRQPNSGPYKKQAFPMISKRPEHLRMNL

[10] = target: T2, Muscarinic acetylcholine receptor M2 (Homo sapiens) (UniProt P08172); assay: Selectivity interaction (Safety Panel 44tm (Eurofins)) EUB0000162b CHRM2; details: at 10 µM
T2 sequence (whole entry): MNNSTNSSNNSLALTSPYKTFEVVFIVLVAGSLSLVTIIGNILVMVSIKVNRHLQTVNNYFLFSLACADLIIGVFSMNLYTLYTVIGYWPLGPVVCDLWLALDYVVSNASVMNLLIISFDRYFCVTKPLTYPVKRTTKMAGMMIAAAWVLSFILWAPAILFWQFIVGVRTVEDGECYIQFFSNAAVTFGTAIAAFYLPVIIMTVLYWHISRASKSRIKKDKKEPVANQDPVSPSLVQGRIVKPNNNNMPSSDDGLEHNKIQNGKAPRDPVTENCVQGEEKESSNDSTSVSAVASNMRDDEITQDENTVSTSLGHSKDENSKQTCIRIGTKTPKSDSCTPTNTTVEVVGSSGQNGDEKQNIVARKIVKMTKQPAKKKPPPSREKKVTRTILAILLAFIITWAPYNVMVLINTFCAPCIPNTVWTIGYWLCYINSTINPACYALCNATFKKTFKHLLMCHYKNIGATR

[11] = target: Ribosomal protein S6 kinase alpha-1 (Homo sapiens, UniProt Q15418); assay: Selectivity interaction (Kinase panel (KiNativ target engagement assay in Jurkat cells)) EUB0001635a RPS6KA1; type: cell-based; details: Selectivity number of off-targets 0.0, Selectivity number of targets 233.0, Source Knowledge https://www.sciencedirect.com/science/article/pii/S2451945619300674?via%3Dihub, at 1 µM
[12] = target: Dual specificity protein kinase CLK2 (Homo sapiens, UniProt P49760); assay: Selectivity interaction (KinomeScan (DiscoverX)) EUB0000666a CLK2; details: at 10 µM
Chain of Dual specificity protein kinase CLK2 (P49760 whole entry, looked up): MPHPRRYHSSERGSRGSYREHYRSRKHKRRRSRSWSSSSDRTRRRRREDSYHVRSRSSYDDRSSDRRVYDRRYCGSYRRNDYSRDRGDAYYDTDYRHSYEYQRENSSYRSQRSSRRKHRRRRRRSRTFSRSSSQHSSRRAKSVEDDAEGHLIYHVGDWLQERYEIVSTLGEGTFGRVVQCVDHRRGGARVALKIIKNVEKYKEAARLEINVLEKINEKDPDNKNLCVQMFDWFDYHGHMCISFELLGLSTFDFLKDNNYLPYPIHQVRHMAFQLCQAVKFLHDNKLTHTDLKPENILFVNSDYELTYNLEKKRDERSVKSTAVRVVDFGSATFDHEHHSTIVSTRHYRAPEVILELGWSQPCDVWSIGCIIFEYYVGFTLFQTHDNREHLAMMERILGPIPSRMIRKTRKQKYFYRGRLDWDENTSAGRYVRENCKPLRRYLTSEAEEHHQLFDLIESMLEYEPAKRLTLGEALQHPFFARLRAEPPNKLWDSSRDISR

Chain of Ribosomal protein S6 kinase alpha-2 (Homo sapiens) (Q15349 whole entry): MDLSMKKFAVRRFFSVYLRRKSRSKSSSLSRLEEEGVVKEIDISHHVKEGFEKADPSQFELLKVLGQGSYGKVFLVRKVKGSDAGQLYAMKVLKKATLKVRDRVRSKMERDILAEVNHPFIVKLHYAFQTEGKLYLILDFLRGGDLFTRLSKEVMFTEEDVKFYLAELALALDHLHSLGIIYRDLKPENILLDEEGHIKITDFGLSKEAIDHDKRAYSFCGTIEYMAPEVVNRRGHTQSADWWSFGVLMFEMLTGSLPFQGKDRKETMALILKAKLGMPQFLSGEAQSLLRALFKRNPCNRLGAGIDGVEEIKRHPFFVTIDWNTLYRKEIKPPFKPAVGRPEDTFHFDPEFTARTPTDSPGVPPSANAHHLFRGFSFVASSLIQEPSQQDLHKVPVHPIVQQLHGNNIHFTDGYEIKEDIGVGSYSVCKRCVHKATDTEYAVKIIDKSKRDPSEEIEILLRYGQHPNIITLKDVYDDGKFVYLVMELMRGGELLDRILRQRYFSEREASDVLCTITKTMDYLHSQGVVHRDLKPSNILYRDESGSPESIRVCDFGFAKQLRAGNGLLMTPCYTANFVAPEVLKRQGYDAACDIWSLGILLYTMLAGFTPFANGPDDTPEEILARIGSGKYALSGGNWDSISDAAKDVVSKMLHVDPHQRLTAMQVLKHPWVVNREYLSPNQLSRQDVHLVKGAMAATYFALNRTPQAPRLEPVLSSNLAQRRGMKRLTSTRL

SMILES: COc1cc(Nc2nc(C)cc(-c3cnn4nc(OC)ccc34)n2)cc(C(F)(F)F)c1
% of control [1]: 90%

% of inhibition [2]: 6.49%
SMILES: CC[C@@H]1[C@H](F)C(=O)N[C@@H]1COc1nccc2cc(C(N)=O)c(OC)cc12 [ZIMLOVISERTIB]

IC50 [3]: > 10 µM
SMILES: CCc1cccc(CC)c1NC(=O)c1nn(C)c2c1CCc1cnc(Nc3ccc(C(=O)NC4CCN(C)CC4)cc3OC(F)(F)F)nc1-2

SMILES: Cn1cc(-n2cnc3c(NCc4nc5cc(Cl)c(Cl)cc5[nH]4)nc(N4CCOCC4)nc32)cn1
% of control [4]: -0.159%

% of control [5]: 100%
SMILES: CCN(CC)CCCCNc1ncc2cc(-c3cc(OC)cc(OC)c3)c(NC(=O)NC(C)(C)C)nc2n1

SMILES: Cc1cc(C)cc([C@@H]2c3cc(C)ccc3NC(=O)CN2C(=O)c2ccc(Br)s2)c1
% of inhibition [6]: -19%

SMILES: COc1cc(N(C)c2ccnc3ccc(C(F)(F)F)cc23)cc(OC)c1OC
% binding [7]: 96%

SMILES: CN(C)CCOc1ccc(-c2nc(-c3ccncc3)c(-c3ccc4c(c3)CC/C4=N\O)[nH]2)cc1
% of control [8]: 99%
% of control [9]: 85%

SMILES: CN(C)C(=O)Cn1cc(-c2ccc(-c3cncc4ccccc34)cc2)cn1
% of control [10]: 84%

SMILES: C=CC(=O)Nc1ccc(C(=O)Nc2[nH]nc3c2CN(C(=O)N[C@H](CN(C)C)c2ccccc2)C3(C)C)cc1
% of engagement [11]: -0.1%

SMILES: O=C(NOC[C@H](O)CO)c1ccc(F)c(F)c1Nc1ccc(I)cc1F
% of control [12]: 96%
